Laboratory results from US7181884B2, “Materials and methods for controlling pests” (University of Florida Research Foundation, Inc., priority 2001, dated 2007).
Where two headings read alike, the source gives them in different places.

Key:
[1] = test system: Manduca sexta neonate larvae; details: all test doses, sprayed excised eggplant leaves, water vehicle
From the text: (§1) Another study evaluated the Manduca larvae mortality on excised leaves of host plant (eggplant; Solanum melongena) that were sprayed with various concentrations of L-methionine dissolved in deionized water. Manduca sexta neonate larvae were initially reared on eggplants in Plexiglas cylinders. Larvae (total N=64/treatment) were exposed to eggplant leaves that were sprayed (then dried) with aqueous solutions of methionine.

[2] = test system: eggplant; Solanum melongena; details: in vivo
From the text: as §1

Manduca sexta larvae [3] = details: Silwet-L77
Experimental: In one study, leaves of eggplant (Solanum melongena) were sprayed with a deionized water/Silwet-L77 solution containing varying concentrations of methionine, then allowed to dry. The Silwet-L77 was prepared according to the manufacture's instructions. Manduca sexta larvae (N=400; 80 per methionine dose) were then exposed to the eggplant leaves during 10 days, and surviving larvae were counted daily.

[4] = test system: Leptinotarsa decemlineata larvae; details: whole eggplants sprayed, water vehicle
From the text: Host growing whole eggplants in environmental growth chanmbers were sprayed with deionized water containing varying concentrations of methionine, then dried. Leptinotarsa decemlineata larvae (N=160 per group) were exposed to the leaves, and surviving larvae were counted daily.

[5] = test system: Colorado potato beetle, Leptinotarsa decemlineata; details: field
Experimental: Eggplant (Solanum melongena) growing in an outside test field were treated with various concentrations of aqueous L-methionine solutions applied to the leaves, which were allowed to dry. Then larvae of Colorado potato beetle, Leptinotarsa decemlineata, were applied to the plants, and surviving larvae were counted daily.

CAATCH1 = CAATCH1 expressed in cell membranes; cited from earlier work
Manduca sexta larvae [6] = details: 10% wt./wt. of dry diet components
Experimental: The effect of feeding L-methionine to Manduca sexta larvae as they progressed from the first through fifth instar stages was determined. Colonies of hornworms are commonly reared for research by well-accepted techniques that account for environmental conditions such as feed availability, daily photoperiod, temperature, etc. The caterpillars were obtained from Carolina Biological Supply Co. and were placed in a lighted 27° C. incubator and fed hydrated reconstituted Dry Tobacco Hornworm Medium Stock No. L-908D (Carolina Biological Supply Co., Burlington, N.C.) supplemented with or without (control) L-methionine supplementation.
The effect of feeding L-methionine to Manduca sexta larvae as they progressed from the first through fifth instar stages was studied. In one study, the caterpillars were placed in a 27° C. incubator (photoperiod 16 hours light, 8 hours dark; relative humidity 60%) and fed a hydrated standard defined hornworm diet without (control) or with L-methionine supplementation (10% wt./wt. of dry components).

[7] = test system: eggplant (Solanum melongena); details: in vivo
From the text: Host eggplant (Solanum melongena) growing in fields were sprayed with deionized water containing varying concentrations of methionine, then dried.

Aedes aegypti larvae = test system: Aedes aegypti larvae
From the text: Another experiment assessed the specificity of L-methionine compared to L-proline on Aedes aegypti survival. Mosquito larvae (third or fourth instar; N=240) were placed in water containing various concentrations of L-proline or L-methionine, and fed ad libitum with commercial dried fish food applied to the water.

Compound | larvae dead [1] | plant viability [2] | time to reach complete mortality (Manduca sexta larvae [3]; leaves treated with 0.31% methionine) | time to reach complete mortality (Manduca sexta larvae [3]; leaves treated with 0.45% (w/w) methionine) | methionine concentration at which complete mortality was attained [4] | efficacy of lowest concentration attempted ([5]; 0.06% (w/w on leaves)) | larvae mortality versus concentration ([5]; various concentrations) | CAATCH1-associated voltage-dependent amino acid-elicited steady state inward cation currents (CAATCH1) | larval development (Manduca sexta larvae [6]) | larvae killed (Manduca sexta larvae [6]; within 3 days) | fruit yield mean numbers or mean weights [7] | larvae killed (Aedes aegypti larvae; 0.7% methionine in water, day 3) | LD50 (Aedes aegypti larvae; day 2) | LD50 (Aedes aegypti larvae; day 3) | effect on larvae survival compared to 0% methionine control (Aedes aegypti larvae; all test days, P≧0.05)
CSCC[C@H](N)C(=O)O [L-methionine] | 100% | plant viability was not affected | 4 days | 2 days | ≤ 0.15% | efficacious | increased in a dose-dependent manner | blocked | prevented all the caterpillars from advancing in development | 100% | not significantly different from control | 100% | ~0.5 % methionine | ~0.3 % methionine | –
O=C(O)[C@@H]1CCCN1 [L-proline, reference compound] | – | – | – | – | – | – | – | – | – | – | – | – | – | – | no effect
